Assay results from publication PMC6858345, “Structural insights into heme binding to IL-36α proinflammatory cytokine” (Scientific Reports, 2019).
Positions count from the first letter of the chain named. Names may count otherwise. Where two headings read alike, the source gives them in different places.

Experiments:
[1] = Fluorescence quenching of heme-incubated proteins; assay type: binding; details: λex 306 nm, λem 352 nm; protein 1 µM, heme 0.1-16 µM
Experimental: All measurements were performed on a fluorescence spectrophotometer FP-8300 (Jasco, Tokyo, Japan). BSA (1 µM) and lysozyme (1 µM) were dissolved in PBS buffer (pH 7.4) and IL-36α variants (1 µM) in 20 mM sodium phosphate buffer (pH 6.9), were each dissolved in and incubated for 60 minutes with varying heme concentrations (0.1–16 µM) in the dark. Parameters were set to excitation at 306 nm, emission at 352 nm, bandwidth 10 nm (extinction) and 20 nm (emission)[30].

[2] = Surface plasmon resonance (SPR) of heme binding to immobilized proteins, single-cycle kinetics
Experimental: SPR measurements were performed on a Biacore T200 instrument (GE Healthcare Europe GmbH, Freiburg, Germany) at 25 °C. The running buffer was 10 mM HEPES (pH 7.4), 150 mM NaCl, 0.05% Tween 20. The proteins BSA (VWR Life Science AMRESCO, Germany), lysozyme (AppliChem GmbH, Darmstadt, Germany), IL-36α (protein expression), trIL-36α (R&D Systems, Minneapolis, MN, USA), trIL-36β (isoform 2, R&D Systems, Minneapolis, MN, USA) and trIL-36γ (R&D Systems, Minneapolis, MN, USA) were covalently immobilized by amine coupling on a CM5 sensor chip (GE Healthcare). Briefly, lysozyme was diluted to a final concentration of 2.5 µg/mL in acetate buffer (pH 7.0), and BSA was diluted to 2.5 µg/mL in acetate buffer (pH 5.0). trIL-36α, trIL-36β, and trIL-36γ were diluted to 0.85 µg/mL in acetate buffer (pH 4.0). Subsequently, the proteins were separately injected at 10 µL/min on an EDC/NHS activated flow cell until immobilization levels of 1600 RU (lysozyme), 1050 RU (trIL-36α), 2900 RU (BSA), 937 RU (trIL-36β), and 320 RU (trIL-36γ) were achieved. An activated/deactivated flow cell was used for reference subtraction. […]

IL-36α = biological target: T1, IL-36α (Homo sapiens, UniProt Q9UHA7); assay: UV/Vis differential spectroscopy, protoporphyrin IX applied to IL-36α; assay type: binding
T1 construct: three additional amino acids (Gly-Ser-His) attached at the N-terminus of full-length IL-36α (161 amino acids); His6 tag with thrombin cleavage site (N, cleaved yes); made in house; host or cells: Escherichia coli BL21(DE3), pET-28a
T1 sequence (Q9UHA7 6-158): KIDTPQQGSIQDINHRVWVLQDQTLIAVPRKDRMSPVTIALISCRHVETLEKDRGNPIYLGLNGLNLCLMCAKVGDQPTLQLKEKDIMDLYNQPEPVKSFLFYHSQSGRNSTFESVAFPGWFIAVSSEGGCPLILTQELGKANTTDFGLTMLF
Experimental: (§1) A Multiskan GO microplate spectrophotometer (ThermoFisher Scientific, Dreieich, Germany) was used for UV/Vis measurements. Heme and peptide solutions were prepared in 100 mM Hepes buffer (pH 7.0). IL-36 cytokines (~5 µM), dissolved in 20 mM sodium phosphate buffer (pH 6.9), were incubated with heme (0.2 to 40 µM) in the dark at room temperature for 60 minutes before UV/Vis spectra were measured at 300 to 600 nm. Protein concentrations were corrected using the calculated molar absorption coefficient at 280 nm. Peptides 1–7 (20 µM) were incubated with heme for 30 minutes in the dark at room temperature.

[3] = set-up: method as in PMID 23730736; details: UV shift to ~366 nm; read-out: Heme binding affinity of the 9mer CP-motif (UV/Vis); cited from earlier work
[4] = UV/Vis differential spectroscopy of heme-incubated proteins and peptides; assay type: binding; details: peptide 20 µM, 30 min, 100 mM Hepes pH 7.0; read-out: KD for UV/Vis, IL-36α-derived peptides
Experimental: as §1

[5] = Peroxidase-like activity of heme complexes; assay type: biochemical; details: protein:heme 1:1 and 1:2
Excerpt: A peroxidase-like activity of heme-peptide/protein complexes has been discussed to be critical due to cytotoxic ROS formation[4],[43]–[45]. We thus tested the peroxidase-like activity of IL-36α-heme-complexes in two different ratios (1:1 and 1:2, protein:heme) as well as of both heme-binding motifs (CP, YH) on the peptide level (Supplementary Fig. S5E).

[6] = tested on: synovial fibroblast-like synoviocytes (FLS) from RA patients; assay: IL-6/IL-8 mRNA expression (qRT-PCR) in stimulated FLS; assay type: cell-based, human; details: 24 h; for IL-6 and IL-8 expression (mRNA) in FLS: IL-36α 5.8 nM, heme 0.15 and 1.5 µM (ratios 26:1 and 260:1)
Experimental: Human fibroblast-like synoviocytes (FLS) were isolated from knee joints of rheumatoid arthritis patients obtained at the University Hospital Erlangen-Nuremberg[69]. All patients gave written informed consent, and their use for research was approved by the ethics committee of the University hospital Erlangen (ethic licenses 4013 and 4065). We confirm that all methods were performed in accordance with the relevant guidelines and regulations. Human RA FLS kept at 37 °C and 5% CO2 in a humidified incubator upon isolation. They were cultured in RPMI and DMEM at a ratio of 1:5, supplemented with 50 U/mL penicillin, 50 μg/mL streptomycin, 0.2% amphotericin and 2% fetal bovine serum. Cells between passages 3 to 8 were used. For stimulation experiments, human FLS from RA patients were seeded at a concentration of 100,000 cells/mL in 500 μL culture medium in a 48-well plate one day prior to the experiment. […] Cells were then incubated for either 5 min (western blot analysis of phosphorylation) or 24 h (qPCR and ELISA). Sample separation was performed by a reducing […] (10% SDS polyacrylamide gel) and blotted to a nitrocellulose membrane by semi-dry transfer. […] Cell viability was analyzed using the AlamarBlue assay according to the manufacturer's instruction (#741802, Invitrogen, Carlsbad, CA, USA), and absorbance was measured at 570 nm and 600 nm. For performing quantitative real-time PCR (qRT-PCR), RNA was isolated from FLS with […], Germany), followed by first-strand cDNA synthesis using the MultiScribeTM MuLV reverse transcriptase (Applied Biosystems, Foster City, CA, USA), both according to manufacturer's instruction. Relative gene expression was assessed by qRT-PCR using the Applied Biosystems 7500 fast-real-time-PCR System (Applied Biosystems) with SYBR® Select Master Mix (ThermoFisher Scientific) as detection method, according to the manufacturer's manual. Samples and the housekeeping gene GAPDH as endogenous control were analyzed in duplicates. […]

[7] = tested on: synovial fibroblast-like synoviocytes (FLS) from RA patients; assay: p38 activation in FLS (western blot of P-p38); assay type: cell-based, human; details: 5 min stimulation
Experimental: Human fibroblast-like synoviocytes (FLS) were isolated from knee joints of rheumatoid arthritis patients obtained at the University Hospital Erlangen-Nuremberg[69]. All patients gave written informed consent, and their use for research was approved by the ethics committee of the University hospital Erlangen (ethic licenses 4013 and 4065). We confirm that all methods were performed in accordance with the relevant guidelines and regulations. Human RA FLS kept at 37 °C and 5% CO2 in a humidified incubator upon isolation. They were cultured in RPMI and DMEM at a ratio of 1:5, supplemented with 50 U/mL penicillin, 50 μg/mL streptomycin, 0.2% amphotericin and 2% fetal bovine serum. Cells between passages 3 to 8 were used.
For stimulation experiments, human FLS from RA patients were seeded at a concentration of 100,000 cells/mL in 500 µL culture medium in a 48-well plate one day prior to the experiment. Before stimulation of FLS, heme was pre-incubated with trIL-36α or trIL-36α protein mutants with substituted amino acids in the proposed heme-binding site in medium for 1 h at room temperature in the dark. […] Cell viability was analyzed using the AlamarBlue assay according to the manufacturer’s instruction (#741802, Invitrogen, Carlsbad, CA, USA), and absorbance was measured at 570 nm and 600 nm.

In the case of “Lysozyme: negative control (non-binder) for heme binding [reference compound]”, the “Heme binding by fluorescence quenching (in words)” value [1] is reported as “non-binder” and the “Heme binding by SPR (in words)” value [2] is reported as “non-binder”.

With C=CC1=C(C)c2cc3[nH]c(cc4nc(cc5[nH]c(cc1n2)c(C)c5CCC(=O)O)C(CCC(=O)O)=C4C)c(C)c3C=C [protoporphyrin IX (PPIX), protoporphyrin IX] the “Effect on UV/Vis differential spectrum of IL-36α” value (IL-36α) was “No effect”.

In the case of “SEGGC136P137LIL (SEGGCPLIL; UniProt Q9UHA7 132-140, looked up, fragment) [9mer CP-motif]”, the Kd [3] is given as 3.75 ± 0.77 µM.

For “FLFY108H109SQSG (FLFYHSQSG; UniProt Q9UHA7 105-113, looked up, fragment) [Peptide 1, IL-36α-derived 9mer wild-type YH motif peptide]”, the Kd [4] was 4.48 ± 2.2 µM and the “Peroxidase-like activity relative to heme (100%)” value [5] was “No significant increase”.

In the case of C=CC1=C(C)C2=Cc3c(C=C)c(C)c4[n]3[Fe+][n]3c(c(C)c(CCC(=O)O)c3=CC3=NC(=C4)C(C)=C3CCC(=O)O)=CC1=N2 [heme], the “IL-6 and IL-8 expression (mRNA) in FLS” value [6] is reported as “did not have an effect” and the “Activation of p38 in IL-36α-mediated signaling” value [7] is reported as “decreased activation of p38”.

B1: C136SP137A: IL-36α protein mutant C136S P137A (protein, UniProt Q9UHA7 6-158, looked up, variant C136S P137A)
Interleukin-36 alpha: T1 sequence (Q9UHA7 6-158) with C131S, P132A
With B1 the “IL-6 expression / biological activity of IL-36α mutants in FLS” value ([6]; 5.8 nM protein, compared to IL-36α) was “showed biological activity, even if reduced with respect to wild-type IL-36α”.

B2: IL-36α: full-length interleukin-36α, recombinantly expressed in E. coli (protein, UniProt Q9UHA7 1-158, looked up)
chain: MEKALKIDTPQQGSIQDINHRVWVLQDQTLIAVPRKDRMSPVTIALISCRHVETLEKDRGNPIYLGLNGLNLCLMCAKVGDQPTLQLKEKDIMDLYNQPEPVKSFLFYHSQSGRNSTFESVAFPGWFIAVSSEGGCPLILTQELGKANTTDFGLTMLF
modifications: full-length
notes: full-length interleukin-36α, recombinantly expressed in E. coli
In the case of B2, the “IL-6 and IL-8 expression (mRNA) in FLS” value [6] is reported as “induced IL-6 and IL-8 expression”, the “Heme binding by fluorescence quenching (in words)” value [1] is reported as “confirmed” and the “Peroxidase-like activity relative to heme (100%)” value [5] is reported as “No significant increase”.
